Measured values: ChEMBL document CHEMBL4033687, “Synthesis, biological evaluation and molecular docking studies of chromone hydrazone derivatives as α-glucosidase inhibitors” (Bioorg Med Chem Lett, 2017)
Active and inactive are the calls of the source. The rule behind the calls is not given here.

Tests used:
[1] = Inhibition of alpha glucosidase (unknown origin) using p-nitrophenyl alpha-D-glucopyranoside as substrate pretreated for 15 mins followed by substrate addition after 30 mins by spectrophotometric method; parameters: species or system Homo sapiens
Homo sapiens = species: Homo sapiens; test: Non-competitive inhibition of alpha glucosidase (unknown origin) at 10 to 30 uM using p-nitrophenyl alpha-D-glucopyranoside as substrate by line-weaver burk plot method

`O=c1c(/C=N/Nc2cccc(Cl)c2)coc2cc(O)ccc12` gave an IC50 [1] of 96.7 µM.

In the case of `NS(=O)(=O)c1ccc(N/N=C/c2coc3ccccc3c2=O)cc1`, the IC50 [1] is reported as 20.1 µM and the inhibition (Homo sapiens) is reported as “Active”.

In the case of `O=c1c(/C=N/Nc2cccc(Cl)c2)coc2ccccc12`, the IC50 [1] is reported as > 100 µM.

With `Cc1ccc(S(=O)(=O)N/N=C/c2coc3cc(O)ccc3c2=O)cc1` the IC50 [1] was > 100 µM.

For `O=C(N/N=C/c1coc2ccccc2c1=O)c1ccccc1`, the IC50 [1] was > 100 µM.

With `CCOC(=O)N/N=C/c1coc2cc(O)ccc2c1=O` the IC50 [1] was 95.4 µM.

Work on `Nc1ccc(C(=O)N/N=C/c2coc3cc(O)ccc3c2=O)cc1` yielded an IC50 [1] of 30.8 µM.

With `CCOC(=O)N/N=C/c1coc2ccccc2c1=O` the IC50 [1] was > 100 µM.

Work on `Nc1ccc(C(=O)N/N=C/c2coc3ccccc3c2=O)cc1` yielded an IC50 [1] of 96.9 µM.

For `O=C(N/N=C/c1coc2cc(O)ccc2c1=O)c1ccccc1`, the IC50 [1] was 45.7 µM.

Molecule `O=C(N/N=C/c1coc2cc(O)ccc2c1=O)c1cccs1` has an IC50 [1] of 60.8 µM.

For `O=C(N/N=C/c1coc2ccccc2c1=O)c1cccs1`, the IC50 [1] was > 100 µM.

For `O=C(N/N=C/c1coc2cc(O)ccc2c1=O)c1ccc(O)cc1`, the IC50 [1] was 86.3 µM.

In the case of `O=c1c(/C=N/Nc2ccccc2)coc2ccccc12`, the IC50 [1] is reported as 26.7 µM.

Work on `NS(=O)(=O)c1ccc(N/N=C/c2coc3cc(O)ccc3c2=O)cc1` yielded an IC50 [1] of 25.2 µM.

Work on `O=C(N/N=C/c1coc2ccccc2c1=O)c1ccc(O)cc1` yielded an IC50 [1] of 39.8 µM.
